Assay results as given in patent publication US20260159536A1, “AKR1C3-ACTIVATED DNA ALKYLATING AGENT, AND MEDICAL APPLICATION THEREOF” (ASCENTAWITS PHARMACEUTICALS, LTD., priority 2021, published 2026).

Assay: in vitro
Details: for half-life at 5 µM: hepatocyte cytosol
Method: (1) Compound A for test, progesterone positive control, and 100 mM stock solutions of AST-3021 inhibitor were prepared and stored in the freezer (−10° C. to −30° C.).
1) Negative control group: at different time points (0 and 60 min), 30 μL/well of hepatocyte cytosol suspension containing 7.5 μM of sample for test was distributed in a 96-well plate. Three replicate wells were prepared in parallel.
2) Positive control group: at different time points (0, 5, 15, 30, 45 and 60 min), 30 μL/well of hepatocyte cytosol suspension containing 7.5 μM of the positive control was distributed in a 96-well plate. Three replicate wells were prepared in parallel.
3) Normal reaction group: at different time points (0, 5, 15, 30, 45 and 60 min), 30 μL/well of hepatocyte cytosol suspension containing 7.5 μM of sample for test was distributed in a 96-well plate. Three replicate wells were prepared in parallel.
4) Inhibition reaction group: at different time points (0, 5, 15, 30, 45 and 60 min), 30 μL/well of hepatocyte cytosol suspension containing […] of sample for test and 4.5 μM of the inhibitor was distributed in a 96-well plate. Three replicate wells were prepared in parallel.
6) 0 min samples: after 150 μL/well of acetonitrile containing the internal standard was added, then 15 μL/well of pre-heated NADPH working solution was added to the samples of normal reaction group, inhibition reaction group and positive control group, and 15 μL/well of pre-heated potassium phosphate buffer was added to the samples of negative control group.
7) Other samples (5, 15, 30, 45 and 60 min): for normal reaction group, inhibition reaction group and positive control group, 15 μL/well of pre-heated NADPH working solution was added to start the reaction; for negative control group, 15 μL/well of pre-heated potassium phosphate buffer was added. The reaction plates were then continued to incubate in a 37° C. water bath and the reactions were stopped by the addition of 150 μL/well of stop solution at the corresponding time points (5, 15, 30, 45 and 60 min).
The concentration of analyte in each sample was expressed as a peak area ratio (peak area analyte/peak areainternal standard), then the peak area ratio at 0 min was used as a reference to calculate the % Remaining at each time point of the incubation, and the ln logarithmic value of the % Remaining was linearly fitted to the incubation time and the half-life was calculated according to the following formula.
In the absence of AST-3021, 5 μM of progesterone was co-incubated with 2 mM of NADPH and 1 mg/mL of hepatocyte cytosol for 0-60 min as a positive control.

Structure (SMILES): O=[N+]([O-])c1ccc(C(OP(=O)(N2CC2)N2CC2)C(F)(F)F)cc1Oc1ccc(-c2ccc(F)cc2)c(F)c1 (racemic) [Compound A]
- half-life at 5 µM (CD-1, mouse, Metabolic parameter t1/2, mouse, 2 mM NADPH, no AST-3021 (normal reaction / positive control group), 5 μM): 8.52 h
- half-life at 5 µM (CD-1, mouse, Metabolic parameter t1/2, mouse, negative control group (no NADPH, no AST-3021), 5 μM): 3.72 h
- half-life at 5 µM (CD-1, mouse, half-life, mouse, with NADPH and AST-3021): 2.34 h
- half-life at 5 µM (CD-1, mouse, half-life, mouse, with NADPH, no AST-3021): 8.52 h
- half-life at 5 µM (CD-1, mouse, with AST-3021 (AKR1C3 inhibitor), 3 μM, Metabolic parameter t1/2, mouse, 2 mM NADPH + 3 μM AST-3021 (inhibition reaction group), 5 μM): 2.81 h
- half-life at 5 µM (SD, rat, Metabolic parameter t1/2, rat, 2 mM NADPH, no AST-3021 (normal reaction / positive control group), 5 μM): 2.18 h
- half-life at 5 µM (SD, rat, Metabolic parameter t1/2, rat, negative control group (no NADPH, no AST-3021), 5 μM): 1.83 h
- half-life at 5 µM (SD, rat, with AST-3021 (AKR1C3 inhibitor), 3 μM, Metabolic parameter t1/2, rat, 2 mM NADPH + 3 μM AST-3021 (inhibition reaction group), 5 μM): 1.69 h
- half-life at 5 µM (Sprague-Dawley (SD), rat, half-life, with NADPH and AST-3021): 1.69 h
- half-life at 5 µM (Sprague-Dawley (SD), rat, half-life, with NADPH, no AST-3021): 2.18 h
- half-life at 5 µM (cynomolgus (printed as 'machins'), monkey, Metabolic parameter t1/2, monkey, 2 mM NADPH, no AST-3021 (normal reaction / positive control group), 5 μM): 2.53 h
- half-life at 5 µM (cynomolgus (printed as 'machins'), monkey, Metabolic parameter t1/2, monkey, negative control group (no NADPH, no AST-3021), 5 μM): 2.87 h
- average % Remaining (human, 60 min, no NADPH, no AST-3021): 38.96%
- average % Remaining (human, 60 min, with NADPH, no AST-3021): 43.34%
- half-life at 5 µM (human, Metabolic parameter t1/2, human, 2 mM NADPH, no AST-3021 (normal reaction / positive control group), 5 μM): 0.831 h
- half-life at 5 µM (human, Metabolic parameter t1/2, human, negative control group (no NADPH, no AST-3021), 5 μM): 0.735 h
- half-life at 5 µM (human, half-life, with NADPH and AST-3021): 1.08 h
- half-life at 5 µM (human, half-life, with NADPH, no AST-3021): 0.831 h
- half-life at 5 µM (human, with AST-3021 (AKR1C3 inhibitor), 3 µM, Metabolic parameter t1/2, human, 2 mM NADPH + 3 μM AST-3021 (inhibition reaction group), 5 μM): 1.08 h
- % Remaining (human, with NADPH and AST-3021): 53.65%
- Metabolic parameter k (human, 2 mM NADPH + 3 μM AST-3021 (inhibition reaction group), 5 μM): 0.0107
- average % Remaining (human, 2 mM NADPH + 3 μM AST-3021 (inhibition reaction group), 5 μM, 0 min): 100.00%
- average % Remaining (human, 2 mM NADPH + 3 μM AST-3021 (inhibition reaction group), 5 μM, 5 min): 83.74%
- average % Remaining (human, 2 mM NADPH + 3 μM AST-3021 (inhibition reaction group), 5 μM, 15 min): 78.58%
- average % Remaining (human, 2 mM NADPH + 3 μM AST-3021 (inhibition reaction group), 5 μM, 30 min): 67.01%
- average % Remaining (human, 2 mM NADPH + 3 μM AST-3021 (inhibition reaction group), 5 μM, 45 min): 66.39%
- average % Remaining (human, 2 mM NADPH + 3 μM AST-3021 (inhibition reaction group), 5 μM, 60 min): 53.65%
- Metabolic parameter k (human, 2 mM NADPH, no AST-3021 (normal reaction / positive control group), 5 μM): 0.0139
- average % Remaining (human, 2 mM NADPH, no AST-3021 (normal reaction / positive control group), 5 μM, 0 min): 100.00%
- average % Remaining (human, 2 mM NADPH, no AST-3021 (normal reaction / positive control group), 5 μM, 5 min): 88.27%
- average % Remaining (human, 2 mM NADPH, no AST-3021 (normal reaction / positive control group), 5 μM, 15 min): 79.04%
- average % Remaining (human, 2 mM NADPH, no AST-3021 (normal reaction / positive control group), 5 μM, 30 min): 70.02%
- average % Remaining (human, 2 mM NADPH, no AST-3021 (normal reaction / positive control group), 5 μM, 45 min): 52.35%
- average % Remaining (human, 2 mM NADPH, no AST-3021 (normal reaction / positive control group), 5 μM, 60 min): 43.34%
- Metabolic parameter k (human, negative control group (no NADPH, no AST-3021), 5 μM): 0.0157
- average % Remaining (human, negative control group (no NADPH, no AST-3021), 5 μM, 0 min): 100.00%
- average % Remaining (human, negative control group (no NADPH, no AST-3021), 5 μM, 60 min): 38.96%
- half-life at 5 µM (machin (cynomolgus), monkey, with AST-3021 (AKR1C3 inhibitor), 3 µM, Metabolic parameter t1/2, monkey, 2 mM NADPH + 3 μM AST-3021 (inhibition reaction group), 5 μM): 2.59 h
- half-life at 5 µM (machins, monkey, half-life, with NADPH and AST-3021): 2.59 h
- half-life at 5 µM (machins, monkey, half-life, with NADPH, no AST-3021): 2.53 h
- average % Remaining (monkey, 60 min, no NADPH, no AST-3021): 78.57%
- average % Remaining (monkey, 60 min, with NADPH, no AST-3021): 73.28%
- % Remaining (monkey, with NADPH and AST-3021): 69.52%
- Metabolic parameter k (monkey, 2 mM NADPH + 3 μM AST-3021 (inhibition reaction group), 5 μM): 0.0045
- average % Remaining (monkey, 2 mM NADPH + 3 μM AST-3021 (inhibition reaction group), 5 μM, 0 min): 100.00%
- average % Remaining (monkey, 2 mM NADPH + 3 μM AST-3021 (inhibition reaction group), 5 μM, 5 min): 96.83%
- average % Remaining (monkey, 2 mM NADPH + 3 μM AST-3021 (inhibition reaction group), 5 μM, 15 min): 101.19%
- average % Remaining (monkey, 2 mM NADPH + 3 μM AST-3021 (inhibition reaction group), 5 μM, 30 min): 90.97%
- average % Remaining (monkey, 2 mM NADPH + 3 μM AST-3021 (inhibition reaction group), 5 μM, 45 min): 88.36%
- average % Remaining (monkey, 2 mM NADPH + 3 μM AST-3021 (inhibition reaction group), 5 μM, 60 min): 69.52%
